The values that follow come from patent US8846947B2, “Benzimidazoles and related analogs as sirtuin modulators” (GlaxoSmithKline LLC, priority 2008, dated 2014).

The target in this assay is T1, SIRT1 (Homo sapiens, UniProt Q96EB6).
T1 sequence (Q96EB6 1-747): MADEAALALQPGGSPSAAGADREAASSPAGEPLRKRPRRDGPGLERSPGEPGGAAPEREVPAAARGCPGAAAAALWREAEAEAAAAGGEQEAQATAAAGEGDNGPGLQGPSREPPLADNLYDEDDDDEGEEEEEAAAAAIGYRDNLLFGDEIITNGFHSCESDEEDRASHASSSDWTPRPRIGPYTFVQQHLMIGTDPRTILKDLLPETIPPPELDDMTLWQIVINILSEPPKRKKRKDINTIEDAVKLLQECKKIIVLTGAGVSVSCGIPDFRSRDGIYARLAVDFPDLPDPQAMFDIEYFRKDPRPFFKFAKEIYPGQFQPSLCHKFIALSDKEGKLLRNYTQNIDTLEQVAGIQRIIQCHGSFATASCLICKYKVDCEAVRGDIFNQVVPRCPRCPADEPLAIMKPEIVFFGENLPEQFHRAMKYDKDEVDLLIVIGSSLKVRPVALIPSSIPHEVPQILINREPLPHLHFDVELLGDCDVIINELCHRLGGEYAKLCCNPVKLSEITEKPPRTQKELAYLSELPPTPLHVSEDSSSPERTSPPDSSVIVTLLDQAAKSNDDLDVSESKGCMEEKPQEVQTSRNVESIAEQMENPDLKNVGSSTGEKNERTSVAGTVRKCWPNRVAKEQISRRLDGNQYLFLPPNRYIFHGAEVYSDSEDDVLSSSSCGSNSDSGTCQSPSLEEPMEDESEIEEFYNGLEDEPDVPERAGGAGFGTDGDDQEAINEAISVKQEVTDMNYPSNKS
Nature of the assay: Mass spectrometry based SIRT1 deacetylase activation assay (acetylated p53-derived peptide substrate). The format is biochemical. Conditions: 0.5 μM peptide substrate, 120 μM βNAD+.

The mark [1] stands for this setting: 10 nM SIRT1, 25 min at 25° C., read-out: EC1.5.
Setting [2] is: 10 nM SIRT1, 25 minutes at 25° C.

Like-named read-outs stand apart in the source and are kept apart here.

As to `FC(F)(F)c1cccc(-c2nc3c(Nc4ccccn4)cccc3[nH]2)c1` [Compound 581, N-(pyridin-2-yl)-2-(3-(trifluoromethyl)phenyl)-1H-benzo[d]imidazol-4-amine], the “Fold Act. (percent maximum fold activation)” value (10 nM SIRT1, 25 min at 25° C.) is recorded as “B (Fold Activation <200%)”. Also, the EC1.5 under setting [1] is above 25000 nM.
`FC(F)(F)c1ccccc1-c1nc2c(Nc3ccccn3)cccc2[nH]1` [Compound 582]: the “Fold Act. (percent maximum fold activation)” value (10 nM SIRT1, 25 min at 25° C.) was “B (Fold Activation <200%)”. Also, under setting [1], the EC1.5 is above 25000 nM.
On the same counts, the results for `O=C(Nc1nccs1)c1cccc2[nH]c(-c3cc(F)ccc3OCCN3CCOCC3)nc12` [Compound 583] are “A (Fold activation >200%)” and 1000 to 25000 nM.
Consider `O=C(Nc1ccccn1)c1cccc2[nH]c(-c3cc(F)ccc3OCCN3CCOCC3)nc12` [Compound 584], for which the “Fold Act. (percent maximum fold activation)” value (10 nM SIRT1, 25 min at 25° C.) is on record as “A (Fold activation >200%)”. The EC1.5 under setting [1] was in the range of 1000 to 25000 nM.
`O=C(Nc1nccs1)c1cccc2[nH]c(-c3cc(F)cc(F)c3OCCN3CCOCC3)nc12` [Compound 585]: the “Fold Act. (percent maximum fold activation)” value (10 nM SIRT1, 25 min at 25° C.) is listed as “B (Fold Activation <200%)”. Moreover, the EC1.5 under setting [1] lay in the range of 1000 to 25000 nM.
With `O=C(Nc1ccccn1)c1cccc2[nH]c(-c3cc(F)cc(F)c3OCCN3CCOCC3)nc12` [Compound 586], the “Fold Act. (percent maximum fold activation)” value (10 nM SIRT1, 25 min at 25° C.) was “B (Fold Activation <200%)”. Also, under setting [1], the EC1.5 lay in the range of 1000 to 25000 nM.
With `CC(C)(C)c1cccc(-c2nc3c(C(=O)Nc4nccs4)cccc3[nH]2)c1OCCN1CCOCC1` [Compound 587], the “Fold Act. (percent maximum fold activation)” value (10 nM SIRT1, 25 min at 25° C.) is “B (Fold Activation <200%)”. Under setting [1], the EC1.5 was in the range of 1000 to 25000 nM.
In the case of `CC(C)(C)c1cccc(-c2nc3c(C(=O)Nc4ccccn4)cccc3[nH]2)c1OCCN1CCOCC1` [Compound 588], where the note is “10 nM SIRT1, 25 min at 25° C.”, the “Fold Act. (percent maximum fold activation)” value was “B (Fold Activation <200%)”. For the same compound, under setting [1], the EC1.5 is 1000 to 25000 nM.
For the compound `Cc1nc(NC(=O)c2cccc3[nH]c(-c4ccc(N5CCOCC5)cc4C(F)(F)F)nc23)sc1C` [Compound 589], the “Fold Act. (percent maximum fold activation)” value (10 nM SIRT1, 25 min at 25° C.) is “A (Fold activation >200%)”. Moreover, the EC1.5 under setting [1] is below 1000 nM.
`Cc1cc(C)nc(NC(=O)c2cccc3[nH]c(-c4ccc(N5CCOCC5)cc4C(F)(F)F)nc23)c1` [Compound 590]: the “Fold Act. (percent maximum fold activation)” value (10 nM SIRT1, 25 min at 25° C.) is listed as “A (Fold activation >200%)”. For the same compound, under setting [1], the EC1.5 was below 1000 nM.
Turning to `O=C(Nc1ccncn1)c1cccc2[nH]c(-c3ccc(N4CCOCC4)cc3C(F)(F)F)nc12` [Compound 591], the “Fold Act. (percent maximum fold activation)” value (10 nM SIRT1, 25 min at 25° C.) is “A (Fold activation >200%)”. Also, under setting [1], the EC1.5 is below 1000 nM.
`Cc1cc(NC(=O)c2cccc3[nH]c(-c4ccc(N5CCOCC5)cc4C(F)(F)F)nc23)n(C)n1` [Compound 592]: under “10 nM SIRT1, 25 min at 25° C.”, the “Fold Act. (percent maximum fold activation)” value is reported as “A (Fold activation >200%)”. The EC1.5 under setting [1] is below 1000 nM.
In the case of `O=C(Nc1ccncn1)c1cccc2[nH]c(-c3ccc(N4CCOCC4)cc3C(F)F)nc12` [Compound 593], the “Fold Act. (percent maximum fold activation)” value (10 nM SIRT1, 25 min at 25° C.) is recorded as “A (Fold activation >200%)”. Also, the EC1.5 under setting [1] was below 1000 nM.
As to `O=C(Nc1nccs1)c1cccc2[nH]c(-c3ccc(OC[C@@H](O)CO)cc3C(F)F)nc12` [Compound 594], the “Fold Act. (percent maximum fold activation)” value (10 nM SIRT1, 25 min at 25° C.) is “A (Fold activation >200%)”. Also, under setting [1], the EC1.5 is below 1000 nM.
Turning to `Cc1cnc(NC(=O)c2cccc3[nH]c(-c4ccc(OC[C@@H](O)CO)cc4C(F)F)nc23)s1` [Compound 595], where the note is “10 nM SIRT1, 25 min at 25° C.”, the “Fold Act. (percent maximum fold activation)” value was “A (Fold activation >200%)”. Moreover, under setting [1], the EC1.5 was below 1000 nM.
Turning to `O=C(Nc1ccccn1)c1cccc2[nH]c(-c3ccc(OC[C@@H](O)CO)cc3C(F)F)nc12` [Compound 596], for the setting “10 nM SIRT1, 25 min at 25° C.”, the “Fold Act. (percent maximum fold activation)” value is “A (Fold activation >200%)”. Besides, the EC1.5 under setting [1] is below 1000 nM.
For the compound `O=C(Nc1cccc(OC2CCNCC2)c1)c1cccc2[nH]c(-c3ccccc3C(F)(F)F)nc12` [Compound 597], under “10 nM SIRT1, 25 min at 25° C.”, the “Fold Act. (percent maximum fold activation)” value is reported as “A (Fold activation >200%)”. Moreover, under setting [1], the EC1.5 is below 1000 nM.
For the compound `O=C(Nc1cccc(OC2CCNCC2)c1)c1cccc2[nH]c(-c3ccc(Cl)cc3C(F)(F)F)nc12` [Compound 598], under setting [2], the EC1.5 result is on record as “A (EC1.5<1.0 uM)” and the “Fold Act. (percent maximum fold activation)” value is listed as “A (Fold activation >200%)”.
On the same counts, the results for `O=C(Nc1cccc(OC2CCNC2)c1)c1cccc2[nH]c(-c3ccc(Cl)cc3C(F)(F)F)nc12` (stereo not shown) [Compound 599] are “A (EC1.5<1.0 uM)” and “A (Fold activation >200%)”.
Consider `CS(=O)(=O)c1ccc(F)cc1-c1nc2c(C(=O)Nc3nccs3)cccc2[nH]1` [Compound 600], for which, under setting [2], the EC1.5 result is on record as “B (EC1.5 1-25 uM)” and the “Fold Act. (percent maximum fold activation)” value is listed as “A (Fold activation >200%)”.
For `Cc1cnc(NC(=O)c2cccc3[nH]c(-c4sc(N5CCOCC5)nc4C)nc23)s1` [Compound 601], under setting [2], the EC1.5 entry is “A (EC1.5<1.0 uM)” and the “Fold Act. (percent maximum fold activation)” value is on record as “A (Fold activation >200%)”.
For `CCCN1CCCc2ccc(-c3nc4c(C(=O)Nc5ncc(C)s5)cccc4[nH]3)cc21` [Compound 602], under setting [2], the EC1.5 result was “B (EC1.5 1-25 uM)” and the “Fold Act. (percent maximum fold activation)” value is “A (Fold activation >200%)”.
Take `C[C@@H]1CN(c2ccc(-c3nc4c(C(=O)Nc5nccs5)cccc4[nH]3)c(C(F)(F)F)c2)C[C@H](C)O1` [Compound 603]: under setting [2], the EC1.5 result is “A (EC1.5<1.0 uM)” and the “Fold Act. (percent maximum fold activation)” value was “A (Fold activation >200%)”.
Taken in the same sequence, the figures for `C[C@@H]1CN(c2ccc(-c3nc4c(C(=O)Nc5cccnc5)cccc4[nH]3)c(C(F)(F)F)c2)C[C@H](C)O1` [Compound 604] were “A (EC1.5<1.0 uM)” and “A (Fold activation >200%)”.
As for `O=C(Nc1ccccn1)c1cccc2[nH]c(-c3ccc(N4CCCC4)cc3C(F)(F)F)nc12` [Compound 605], under setting [2], the EC1.5 result is on record as “B (EC1.5 1-25 uM)” and the “Fold Act. (percent maximum fold activation)” value is “A (Fold activation >200%)”.
Turning to `O=C(Nc1nccs1)c1cccc2[nH]c(-c3ccc(N4CC[C@H](F)C4)cc3C(F)(F)F)nc12` [Compound 606], under setting [2], the EC1.5 entry is reported as “A (EC1.5<1.0 uM)” and the “Fold Act. (percent maximum fold activation)” value was “A (Fold activation >200%)”.
For `O=C(Nc1ccccn1)c1cccc2[nH]c(-c3ccc(N4CC[C@H](F)C4)cc3C(F)(F)F)nc12` [Compound 607], under setting [2], the EC1.5 result is “A (EC1.5<1.0 uM)” and the “Fold Act. (percent maximum fold activation)” value is recorded as “A (Fold activation >200%)”.
Turning to `O=C(Nc1nccs1)c1cccc2[nH]c(-c3ccc(N4CC[C@@H](F)C4)cc3C(F)(F)F)nc12` [Compound 608], under setting [2], the EC1.5 entry is listed as “A (EC1.5<1.0 uM)” and the “Fold Act. (percent maximum fold activation)” value is listed as “A (Fold activation >200%)”.
For `O=C(Nc1ccccn1)c1cccc2[nH]c(-c3ccc(N4CC[C@@H](F)C4)cc3C(F)(F)F)nc12` [Compound 609], under setting [2], the EC1.5 entry is given as “B (EC1.5 1-25 uM)” and the “Fold Act. (percent maximum fold activation)” value is “A (Fold activation >200%)”.
As for `C[C@@H]1CN(CCOc2ccccc2-c2nc3c(C(=O)Nc4ccccn4)cccc3[nH]2)C[C@H](C)O1` [Compound 610], under setting [2], the EC1.5 result is listed as “B (EC1.5 1-25 uM)” and the “Fold Act. (percent maximum fold activation)” value was “A (Fold activation >200%)”.
Taken in the same sequence, the figures for `O=C(Nc1nccs1)c1cccc2[nH]c(-c3ccccc3OCCN3CCCC(F)(F)C3)nc12` [Compound 611] were “C (EC1.5 >25 uM)” and “B (Fold Activation <200%)”.
`O=C(Nc1ccccn1)c1cccc2[nH]c(-c3ccccc3OCCN3CCCC(F)(F)C3)nc12` [Compound 612]: under setting [2], the EC1.5 entry is given as “C (EC1.5 >25 uM)” and the “Fold Act. (percent maximum fold activation)” value is on record as “B (Fold Activation <200%)”.
Regarding `O=C(Nc1ccccn1)c1cccc2[nH]c(-c3ccccc3OCCN3CCC(F)(F)CC3)nc12` [Compound 613], under setting [2], the EC1.5 entry is “B (EC1.5 1-25 uM)” and the “Fold Act. (percent maximum fold activation)” value was “B (Fold Activation <200%)”.
On the same counts, the results for `O=C(Nc1nccs1)c1cccc2[nH]c(-c3ccccc3OCCN3CCC(F)(F)C3)nc12` [Compound 614] are “C (EC1.5 >25 uM)” and “B (Fold Activation <200%)”.
On the same counts, the results for `O=C(Nc1ccccn1)c1cccc2[nH]c(-c3ccccc3OCCN3CCC(F)(F)C3)nc12` [Compound 615] are “C (EC1.5 >25 uM)” and “B (Fold Activation <200%)”.
Turning to `CC(C)(C)NCCOc1ccccc1-c1nc2c(C(=O)Nc3ccccn3)cccc2[nH]1` [Compound 616], under setting [2], the EC1.5 entry is “B (EC1.5 1-25 uM)” and the “Fold Act. (percent maximum fold activation)” value was “A (Fold activation >200%)”.
In the case of `FC(F)(F)c1cccc(-c2nc3c(NCc4cccnc4)cccc3[nH]2)c1` [Compound 617], under setting [2], the EC1.5 result was “B (EC1.5 1-25 uM)” and the “Fold Act. (percent maximum fold activation)” value is “B (Fold Activation <200%)”.
Consider `FC(F)(F)c1ccccc1-c1nc2c(NCc3cccnc3)cccc2[nH]1` [Compound 618], for which, under setting [2], the EC1.5 entry was “C (EC1.5 >25 uM)” and the “Fold Act. (percent maximum fold activation)” value was “B (Fold Activation <200%)”.
